Assays:
[1] = Solubility of the crystals in solvents; assay type: physicochemical
[2] = system: PEG-modified esterase (carboxyl esterase); assay: Acetylation of lankacidin C to lankacidin A by PEG-modified esterase with different acetyl group donors (Lineweaver-Burk analysis); assay type: biochemical, Streptomyces rochei var. volubilis; settings: acetyl group donor as substrate, 11 mM lankacidin C in methyl isobutyl ketone, 37° C., least-squares method from Table 2; for Vmax: lankacidin A formed
Experimental: 2 ml of a solution of 11 mM concentrations of lankacidin C and 50 mM concentrations of acetic anhydride in methyl isobutyl ketone was put in a 20 ml test tube with stopper, to which was added 0.3 ml of a solution of PEG-modified esterase in 0.2M tris(hydroxymethyl) aminomethane-maleic acid buffer (pH 7.0), the concentration of PEG-modified esterase of which was 12 mg per ml, followed by shaking with shaking apparatus (80 spm) at 37° C.
By high-performance liquid chromatography (hereinafter referred to briefly as HPLC method) as described below, the amount of lankacidin A formed was measured at the time shown in Table 1.
By changing the concentration of acetyl group donor to those shown of Table 2, with the reaction time being 20 min., the same procedure as in Example 1 was conducted.
By using Lineweaver-Burk's equation of the formula 2 [Biochemical Dictionary, first edition, page 1314 (1984), Tokyokagakudozin Ltd.] derived by modifying the Michaelis-Menten equation of formula 1 [Op Cit. page 1239], the reaction using acetic anhydride as an acetyl group donor was compared with that using ethyl acetate as acetyl group donor. [formula]
By putting values of the concentration of acetyl group donor shown in Table 2 in the place of [S]o, and values of the amount of lankacidin A formed shown in Table 2 in the place of .nu., values of Km and Vmax were calculated by means of the least-squares method.

Row | Solubility in acetone ([1]; acetone) | Solubility in chloroform ([1]; chloroform) | Solubility in ethanol ([1]; ethanol) | Solubility in methanol ([1]; methanol) | Solubility in water ([1]; water) | Compound | Km ([2]; reaction time 20 min.) [mM] | Vmax [2] [mM/20 min.]
1 | readily soluble | relatively soluble | readily soluble | readily soluble | hardly soluble | CCC(=O)OC1C=CC2OC2CC(C)OC(=O)CC(OC(=O)CC)C(OC)C(OC2OC(C)C(OC3CC(C)(O)C(OC(=O)CC)C(C)O3)C(N(C)C)C2O)C(CC=O)CC1C (centres unmarked) [9-propionyl maridomycin III] |  | 
2 |  |  |  |  |  | CC(=O)OC(C)=O [Acetic anhydride, acetic anhydride] | 7.69 | 6.59
3 |  |  |  |  |  | CCOC(C)=O [Ethyl acetate, ethyl acetate] |  | 5.40
